Laboratory results from US20090170808A1, “ORAL AGENT FOR IMPROVING AND PROTECTING THE FUNCTION OF JOINT COMPRISING HYALURONIC ACID-PHOSPHOLIPID COMPLEXES” (priority 2005, published 2009).
Marks after values point to notes of the source that are not given here.

Experiments:
[1] = system: papain-induced OA model in rabbit; assay: GAG content in knee joint cartilage, papain-induced OA model in rabbit (azure A method); assay type: in vivo; parameters: unit not given here; conditions: n = 6, x ± s
Procedure: (§1) 30 rabbits were randomly divided into five groups, i.e., normal control group; normal saline (NS) injection group; hyaluronic acid (HA) oral administration group; hyaluronic acid (HA) injection group; and hyaluronic acid-phospholipid complex (HA-PL, the complex of Preparation Example 2) oral administration group.
(§2) Using the papain-induced OA model in rabbit, the latter four groups of rabbits received injection of 0.1 ml of a papain solution (1.8 mg papain and 50 mg cysteine hydrochloride in 1 ml normal saline, sterile filtered through a 0.22 μm filter membrane) into the right knee articular cavity. A second injection was performed 3 days later.
Starting on Day 7 post-modeling, the rabbits were dosed. […] For oral administration, the respective agent was given intragastrically every day, at a dosage 40 mg/kg body weight, calculated as hyaluronic acid, in a volume of 1 ml/100 g body weight, for 2 weeks.
(§3) After completion of the administration, synovial fluid was aspirated, and the rabbits were sacrificed. […] The total amount of GAG in the cartilage was determined by the azure A method, and the level of HA in the synovial fluid was determined using an HA RIA kit.
The content of GAG in samples from each group was expressed as the amount contained in every 1 mg wet weight of the cartilage ( x±s), and was analyzed by t-test for significance test.

[2] = system: papain-induced OA model in rabbit; assay: HA content in knee joint synovial fluid, papain-induced OA model in rabbit (HA RIA kit); assay type: in vivo; conditions: n = 6, x ± s
Procedure: as §1, §2
Starting on Day 7 post-modeling, the rabbits were dosed. For administration by injection into joint cavity, a injection volume of 0.3 ml, and a hyaluronic acid concentration of 10 mg/ml were used, once every five days for a total of 3 injections during the test. For oral administration, the respective agent was given intragastrically every day, at a dosage 40 mg/kg body weight, calculated as hyaluronic acid, in a volume of 1 ml/100 g body weight, for 2 weeks.
as §3

[3] = injection into joint cavity, 0.3 ml of 10 mg/ml, once every five days, 3 injections
[4] = oral (intragastric) daily, 40 mg/kg calculated as hyaluronic acid, 2 weeks

hyaluronic acid [HA]
GAG Content in knee joint cartilages [1, 3]: 29.9 ± 4.4^1),2) ng · ml^−1
GAG Content in knee joint cartilages [1, 4]: 23.3 ± 4.2
HA content in knee joint synovial fluid [2, 3]: 4.64 ± 0.51^1) mg · ml^−1
HA content in knee joint synovial fluid [2, 4]: 4.65 ± 0.54^1) mg · ml^−1
